The NIST ThermoML archive (doi:10.1021/je201107a)
± gives the expanded uncertainty stated by the source.

Tests used:
[1] = mn = molality of the nth substance listed, in mol/kg; conditions: 298.15 K, Ring tensiometer
[2] = cn = amount concentration of the nth substance listed, in mol/dm3; conditions: 298.15 K, Ring tensiometer

CCCCCCCCCCCC[N+](C)(C)[O-] [Dodecyldimethylamine oxide] + O
[1]
Conditions	surface tension liquid-gas [mN/m]
m1 = 0.00025	43.18 ± 0.58
m1 = 0.0005	39.98 ± 0.54
m1 = 0.00074	39.2 ± 0.53
m1 = 0.00099	36.87 ± 0.51
m1 = 0.00123	35.11 ± 0.49
m1 = 0.00148	33.73 ± 0.47
m1 = 0.00172	33.19 ± 0.46
m1 = 0.00196	33.32 ± 0.46
m1 = 0.00244	34.06 ± 0.48
m1 = 0.00291	34.05 ± 0.47
m1 = 0.00338	34.22 ± 0.48
m1 = 0.00385	34.14 ± 0.47
m1 = 0.00431	34.17 ± 0.47

CCCCCCCCCC[N+](C)(C)C.[Br-] [N,N,N-trimethyl-1-decanaminium bromide] + O
[2]
Conditions	surface tension liquid-gas [mN/m]
c1 = 0.0118	54.43 ± 0.71
c1 = 0.0211	48.37 ± 0.64
c1 = 0.0286	45.75 ± 0.61
c1 = 0.0348	42.87 ± 0.58
c1 = 0.04	40.18 ± 0.55
c1 = 0.0444	37.98 ± 0.52
c1 = 0.0464	37.19 ± 0.51
c1 = 0.0483	36.21 ± 0.5
c1 = 0.05	36.15 ± 0.5
c1 = 0.0516	36.47 ± 0.5
c1 = 0.0531	35.98 ± 0.5
c1 = 0.0545	35.88 ± 0.49
c1 = 0.0559	36.19 ± 0.5
c1 = 0.0571	36.31 ± 0.5

CCCCCCCCCCCC[N+](C)(C)C.[Br-] [dodecyltrimethylammonium bromide] + O
[1]
Conditions	surface tension liquid-gas [mN/m]
m1 = 0.0005	55.13 ± 0.72
m1 = 0.00099	55.56 ± 0.72
m1 = 0.00148	53.67 ± 0.7
m1 = 0.00196	53.93 ± 0.7
m1 = 0.00244	53.53 ± 0.7
m1 = 0.00291	52.63 ± 0.69
m1 = 0.00338	52.13 ± 0.68
m1 = 0.00476	49.16 ± 0.65
m1 = 0.00654	45.2 ± 0.6
m1 = 0.00826	42.32 ± 0.57
m1 = 0.00991	39.41 ± 0.54
m1 = 0.0115	36.77 ± 0.51
m1 = 0.013	34.09 ± 0.47
m1 = 0.0138	34.98 ± 0.49
m1 = 0.0145	37.44 ± 0.51
m1 = 0.0153	37.98 ± 0.52
m1 = 0.016	38.33 ± 0.52
m1 = 0.0167	38.47 ± 0.52
m1 = 0.0177	38.69 ± 0.53
m1 = 0.0184	38.46 ± 0.52

CCCCCCCCCCCCCC[N+](C)(C)C.[Br-] [tetradecyltrimethylammonium bromide] + O
[1]
Conditions	surface tension liquid-gas [mN/m]
m1 = 0.0005	53.96 ± 0.7
m1 = 0.00099	52.31 ± 0.69
m1 = 0.00148	46.35 ± 0.62
m1 = 0.00196	41.65 ± 0.56
m1 = 0.00244	39 ± 0.53
m1 = 0.00291	36.35 ± 0.5
m1 = 0.00338	34.05 ± 0.47
m1 = 0.00385	33.87 ± 0.47
m1 = 0.00431	35.02 ± 0.49
m1 = 0.00476	36.24 ± 0.5
m1 = 0.00521	35.86 ± 0.49
m1 = 0.00566	36.33 ± 0.5
m1 = 0.0061	36.74 ± 0.5
m1 = 0.00654	36.6 ± 0.5
m1 = 0.00698	36.81 ± 0.51
